# Assay results from patent publication US20030157035A1, “PHOTO STABLE ORGANIC SUNSCREEN COMPOUNDS WITH ANTIOXIDANT PROPERTIES AND COMPOSITIONS OBTAINED THEREFROM” (EM Industries, priority 2001, published 2003).
# Read-outs that look alike come from different tables or passages of the source.
# Key:
# [1] = DPPH test method (reducing activity of DPPH radical); format: biochemical; settings: absorbance at 517 nm after 20 minutes
# Procedure: A DPPH working solution is then prepared by diluting 100 mL of this concentrate to a final volume of 250 mL (100 μM/mL). A blank 13×100 mm borosilicate glass screw top tube of ethanol (USP) is used to zero the spectrometer (Milton Roy, Spectronic 20+) at 517 nm and a control tube of DPPH working solution is measured under identical conditions, and taken as 0% activity. […] After 20 minutes, the absorbance of each sample is read at 517 nm.
# The percent reducing activity (%RA) is calculated using the following equation: [formula]
# Where A(0) is the absorbance value of the DPPH working solution at 517nm zeroed against an ethanol blank and A(20) is the absorbance at 517 nm, 20 minutes after combining the antioxidant with the DPPH working solution.
# The concentration of antioxidant (mg/ml) in the final assay mixture is calculated based on the dilution of respective aliquots of each compound in the final assay volume and %RA tabulated and plotted as percent activity at each concentration in the dilution series.
# The antioxidant activity of selected compounds of this invention was determined from their reducing activity of a DPPH radical.
# [2] = UV-visible absorption spectrum; format: physicochemical
# Procedure: (§1) Each sunscreen compound is dissolved in 70% ethanol/30% water and the UV visible absorption spectrum measured with a Shimadza UV 2101-double beam spectrophotometer using the solvent as reference. A control solution of Octocrylene is prepared and the UV-visible absorption spectrum measured. Each solution is then illuminated for two hours in the solar simulator. After illumination, the absorption spectrum is again measured for each solution.
# [3] = Stabilization of Avobenzone under solar simulator illumination (HPLC); format: physicochemical
# Procedure: Individual solutions of selected sunscreen compounds (see Table 1) with Avobenzone were as follows. Each sunscreen compound was dissolved in 50% ethanol/50% H2O solution containing roughly an equal molar amount of Avobenzone. A similar solution containing Di-2-ethylhexyl-2,6-napthalene dicarboxylic acid (DENDA) and Avobenzone was also prepared. Each solution was then illuminated in the solar simulator as configured above for the photostability tests and aliquots of each solution were removed at 30-minute time intervals. These aliquots were injected into an HPLC and the loss of Avobenzone was followed with illumination time. The high performance liquid chromatograph (HPLC) used for all experiments reported therein incorporated a Spectra-Physics model P-200 pump with an Applied Biosystems model 785A UV-Visible detector with a Rheodyne manual injector incorporating a […] sample loop and a 150×4.6 mm reversed-phase C18 column (Alltech). All analyses were carried out under isocratic elution conditions using […] mixtures for the mobile phase at a flow rate of […] per minute. It was necessary to employ HPLC separation of Avobenzone from each of the sunscreen compounds to quantify Avobenzone due to the absorption spectra overlap with some of these compounds.
# [4] = Photostability in Xe-arc solar simulator (loss of UV absorption); settings: 70% ethanol/30% water, about 250 J/cm^2
# Procedure: Compounds are illuminated in a solar simulator incorporating a 1 kw Xe arc lamp, optical bench and illumination chamber. The entire output of the illumination system is focused onto the face of a 1 centimeter Cuvette (an area of 4 cm^2) that contains the dilute samples of a compound of Formula I. The samples experience roughly 250 J/cm^2 of radiation between 290 and 400 nm over a period of two hours. The solutions contain between 0.0056 mg/ml and 2.5 mg/ml.
# A solar simulator used for illumination of the samples in the experiments is constructed incorporating a 1 kw Xe arc lamp, optical bench and sample illumination chamber. The lamp output is filtered through a water filter with a course window to remove most of the infrared radiation and optical filters to remove wavelengths below 290 mn. The output of the illumination system is focused onto the face of a 1 cm quartz Cuvette that is thermally equilibrated with a constant temperature water bath at 25° C. A magnetic stir is mounted under the Cuvette so that the samples could be stirred while being illuminated. An electric shutter is controlled by a dark room timer to provide precise control of illumination times. The solar simulator is constructed to provide illumination that closely matches terrestrial sunlight. The solar simulator delivers roughly 250 J/cm^2 over a 2-hour period of illumination in a 290-490 nm range. This irradiance is determined using two nitrobenzaldehyde chemical actinometry. The irradiance is much higher than other solar simulator systems which typically illuminate a large area in order to illuminate many samples simultaneously rather than being focused down to a very small area.
# as §1
# [5] = Product/Avobenzone (1:1, w/w), % Loss of Avobenzone by HPLC, solar simulator, 2 hrs
"λmax, nm (Ethanol) [2] [nm]",Stabilization of Avobenzone % Loss of Avobenzone in 2 hrs [3] [%],Photostability % Loss in 2 hrs [4] [%],"Stabilization of Avobenzone % Loss of Avobenzone in 2 hrs [3, 5]",Compound,% Reducing Activity of DPPH Radical at 30 μg/ml [1] [%]
332,4.5,–,–,CCCCC(CC)COC(=O)C(=Cc1ccc(O)c(OC)c1)C(=O)OCC(CC)CCCC (stereo not shown) [Di-(2-Ethylhexyl)-3-methoxy-4-hydroxy benzylidene malonate],7.4
358,–,37,–,"COc1ccc(C(=O)CC(=O)c2ccc(C(C)(C)C)cc2)cc1 [Avobenzone, reference compound]",–
341,–,3.2,insignificant,COc1cc(C=C(C(C)=O)C(=O)OCCC(C)C)cc(C(C)C)c1O [Isoamyl-alpha-acetyl-3-methoxy-4-hydroxy-5-isopropyl-cinnamate],28
334,2.5,–,–,CCCCC(CC)COC(=O)C(=Cc1cc(OC)c(O)c(C(C)C)c1)C(=O)OCC(CC)CCCC (stereo not shown) [di-(2-ethyhexyl)-3-methoxy-4-hydroxy-5-isopropyl-benzylidene malonate],11.2
339,–,4.1,insignificant,COc1cc(C=C(C(C)=O)C(=O)OCCC(C)C)ccc1O [Iso-amyl-alpha-acetyl-3-methoxy-4-hydroxy-cinnamate],22
303,–,2.8,1.5%,"CCCCC(CC)COC(=O)C(C#N)=C(c1ccccc1)c1ccccc1 (stereo not shown) [Octocrylene, reference compound]",–
333,3.8,–,–,COc1cc(C=C(C(=O)OCCC(C)C)C(=O)OCCC(C)C)ccc1O [Di-isoamyl-3-methoxy-4-hydroxy benzylidene malonate],9.5
